Activity calls are given as the source filed them. No rule for the calls is given here.
System: CCRIS mutagenicity, Ames/micronucleus/aberration tests
Assay: CCRIS mutagenicity studies
[1] = Test System: AMES SALMONELLA TYPHIMURIUM, Strain/Indicator: TA98, Metabolic Activation: NONE, Method: PREINCUBATION
[2] = Test System: AMES SALMONELLA TYPHIMURIUM, Strain/Indicator: TA98, Metabolic Activation: NONE, Method: STANDARD PLATE
[3] = Test System: AMES SALMONELLA TYPHIMURIUM, Strain/Indicator: TA100, Metabolic Activation: NONE, Method: PREINCUBATION
[4] = Test System: AMES SALMONELLA TYPHIMURIUM, Strain/Indicator: TA102, Metabolic Activation: NONE, Method: STANDARD PLATE
[5] = Test System: AMES SALMONELLA TYPHIMURIUM, Strain/Indicator: TA1535, Metabolic Activation: NONE, Method: PREINCUBATION
[6] = Test System: AMES SALMONELLA TYPHIMURIUM, Strain/Indicator: TA1537, Metabolic Activation: NONE, Method: PREINCUBATION

SMILES: OB(O)O
- mutagenic call (End Point: In vitro chromosomal aberrations, Test System: Human peripheral lymphocytes, Metabolic Activation: None): active; positive (structural changes)
- mutagenic call (End Point: In vitro micronucleus, Test System: Human peripheral blood lymphocytes, Metabolic Activation: None): inactive; negative
- mutagenic call (Test System: AMES SALMONELLA TYPHIMURIUM, Strain/Indicator: TA98, Metabolic Activation: HAMSTER, LIVER, S-9, AROCLOR 1254, Method: PREINCUBATION): inactive; negative
- mutagenic call [1]: inactive; negative
- mutagenic call [2]: inactive; negative
- mutagenic call (Test System: AMES SALMONELLA TYPHIMURIUM, Strain/Indicator: TA98, Metabolic Activation: RAT LIVER S-9, PHENOBARBITAL AND BETA-NAPHTHOFLAVONE, Method: PREINCUBATION): inactive; negative
- mutagenic call (Test System: AMES SALMONELLA TYPHIMURIUM, Strain/Indicator: TA98, Metabolic Activation: RAT, LIVER, S-9, AROCLOR 1254, Method: PREINCUBATION): inactive; negative
- mutagenic call (Test System: AMES SALMONELLA TYPHIMURIUM, Strain/Indicator: TA98, Metabolic Activation: RAT, LIVER, S-9, BETA-NAPHTHOFLAVONE AND PHENOBARBITAL, Method: STANDARD PLATE): inactive; negative
- mutagenic call (Test System: AMES SALMONELLA TYPHIMURIUM, Strain/Indicator: TA100, Metabolic Activation: HAMSTER, LIVER, S-9, AROCLOR 1254, Method: PREINCUBATION): inactive; negative
- mutagenic call [3]: inactive; negative
- mutagenic call (Test System: AMES SALMONELLA TYPHIMURIUM, Strain/Indicator: TA100, Metabolic Activation: RAT LIVER S-9, PHENOBARBITAL AND BETA-NAPHTHOFLAVONE, Method: PREINCUBATION): inactive; negative
- mutagenic call (Test System: AMES SALMONELLA TYPHIMURIUM, Strain/Indicator: TA100, Metabolic Activation: RAT, LIVER, S-9, AROCLOR 1254, Method: PREINCUBATION): inactive; negative
- mutagenic call (Test System: AMES SALMONELLA TYPHIMURIUM, Strain/Indicator: TA100, Metabolic Activation: RAT, LIVER, S-9, BETA-NAPHTHOFLAVONE AND PHENOBARBITAL, Method: STANDARD PLATE): inactive; negative
- mutagenic call [4]: inactive; negative
- mutagenic call (Test System: AMES SALMONELLA TYPHIMURIUM, Strain/Indicator: TA102, Metabolic Activation: RAT, LIVER, S-9, BETA-NAPHTHOFLAVONE AND PHENOBARBITAL, Method: STANDARD PLATE): inactive; negative
- mutagenic call (Test System: AMES SALMONELLA TYPHIMURIUM, Strain/Indicator: TA1535, Metabolic Activation: HAMSTER, LIVER, S-9, AROCLOR 1254, Method: PREINCUBATION): inactive; negative
- mutagenic call [5]: inactive; negative
- mutagenic call (Test System: AMES SALMONELLA TYPHIMURIUM, Strain/Indicator: TA1535, Metabolic Activation: RAT LIVER S-9, PHENOBARBITAL AND BETA-NAPHTHOFLAVONE, Method: PREINCUBATION): inactive; negative
- mutagenic call (Test System: AMES SALMONELLA TYPHIMURIUM, Strain/Indicator: TA1535, Metabolic Activation: RAT, LIVER, S-9, AROCLOR 1254, Method: PREINCUBATION): inactive; negative
- mutagenic call (Test System: AMES SALMONELLA TYPHIMURIUM, Strain/Indicator: TA1537, Metabolic Activation: HAMSTER, LIVER, S-9, AROCLOR 1254, Method: PREINCUBATION): inactive; negative
- mutagenic call [6]: inactive; negative
- mutagenic call (Test System: AMES SALMONELLA TYPHIMURIUM, Strain/Indicator: TA1537, Metabolic Activation: RAT LIVER S-9, PHENOBARBITAL AND BETA-NAPHTHOFLAVONE, Method: PREINCUBATION): inactive; negative
- mutagenic call (Test System: AMES SALMONELLA TYPHIMURIUM, Strain/Indicator: TA1537, Metabolic Activation: RAT, LIVER, S-9, AROCLOR 1254, Method: PREINCUBATION): inactive; negative
- mutagenic call (Test System: AMES SALMONELLA TYPHIMURIUM, Strain/Indicator: TA1538, Metabolic Activation: NONE, Method: PREINCUBATION): inactive; negative
- mutagenic call (Test System: AMES SALMONELLA TYPHIMURIUM, Strain/Indicator: TA1538, Metabolic Activation: RAT LIVER S-9, PHENOBARBITAL AND BETA-NAPHTHOFLAVONE, Method: PREINCUBATION): inactive; negative
- mutagenic call (Test System: E.COLI, Strain/Indicator: WP2UVRA, Metabolic Activation: NONE, Method: PREINCUBATION): inactive; negative
- mutagenic call (Test System: E.COLI, Strain/Indicator: WP2UVRA, Metabolic Activation: RAT LIVER S-9, PHENOBARBITAL AND BETA-NAPHTHOFLAVONE, Method: PREINCUBATION): inactive; negative
- mutagenic call (Test System: MOUSE LYMPHOMA, Strain/Indicator: L5178Y (TK+/TK-), Metabolic Activation: NONE, Method: SUSPENSION/PLATE): inactive; negative
- mutagenic call (Test System: MOUSE LYMPHOMA, Strain/Indicator: L5178Y (TK+/TK-), Metabolic Activation: RAT, LIVER, S-9, AROCLOR 1254, Method: SUSPENSION/PLATE): inactive; negative

SMILES: N[C@@H](CSC(F)(F)C(F)F)C(=O)O
- mutagenic call (Test System: AMES SALMONELLA TYPHIMURIUM, Strain/Indicator: TA100, Metabolic Activation: RAT, KIDNEY, S-9, AROCLOR 1254, Method: STANDARD PLATE): inactive; negative
- mutagenic call (Test System: AMES SALMONELLA TYPHIMURIUM, Strain/Indicator: TA2638, Metabolic Activation: NONE, Method: PREINCUBATION): inactive; negative

SMILES: ClC1=C(Cl)[C@]2(Cl)[C@H]3[C@H]([C@@H]4C=C[C@H]3C4)[C@@]1(Cl)C2(Cl)Cl
- mutagenic call (Test System: AMES SALMONELLA TYPHIMURIUM, Strain/Indicator: TA97, Metabolic Activation: HAMSTER, LIVER, S-9, AROCLOR 1254 (10 OR 30%), Method: PREINCUBATION): inactive; negative
- mutagenic call (Test System: AMES SALMONELLA TYPHIMURIUM, Strain/Indicator: TA97, Metabolic Activation: NONE, Method: PREINCUBATION): inactive; negative
- mutagenic call (Test System: AMES SALMONELLA TYPHIMURIUM, Strain/Indicator: TA97, Metabolic Activation: NONE, Method: STANDARD PLATE): inactive; negative
- mutagenic call (Test System: AMES SALMONELLA TYPHIMURIUM, Strain/Indicator: TA97, Metabolic Activation: RAT, LIVER, S-9, AROCLOR 1254 (10 OR 30%), Method: PREINCUBATION): inactive; negative
- mutagenic call (Test System: AMES SALMONELLA TYPHIMURIUM, Strain/Indicator: TA97, Metabolic Activation: RAT, LIVER, S-9, AROCLOR 1254, Method: STANDARD PLATE): inactive; negative
- mutagenic call (Test System: AMES SALMONELLA TYPHIMURIUM, Strain/Indicator: TA98, Metabolic Activation: HAMSTER, LIVER, S-9, AROCLOR 1254 (10 OR 30%), Method: PREINCUBATION): inactive; negative
- mutagenic call [1]: inactive; negative
- mutagenic call [2]: inactive; negative
- mutagenic call (Test System: AMES SALMONELLA TYPHIMURIUM, Strain/Indicator: TA98, Metabolic Activation: RAT, LIVER, S-9, AROCLOR 1254 (10 OR 30%), Method: PREINCUBATION): inactive; negative
- mutagenic call (Test System: AMES SALMONELLA TYPHIMURIUM, Strain/Indicator: TA98, Metabolic Activation: RAT, LIVER, S-9, AROCLOR 1254, Method: STANDARD PLATE): inactive; negative
- mutagenic call (Test System: AMES SALMONELLA TYPHIMURIUM, Strain/Indicator: TA100, Metabolic Activation: HAMSTER, LIVER, S-9, AROCLOR 1254 (10 OR 30%), Method: PREINCUBATION): inactive; negative
- mutagenic call [3]: inactive; negative
- mutagenic call (Test System: AMES SALMONELLA TYPHIMURIUM, Strain/Indicator: TA100, Metabolic Activation: NONE, Method: STANDARD PLATE): inactive; negative
- mutagenic call (Test System: AMES SALMONELLA TYPHIMURIUM, Strain/Indicator: TA100, Metabolic Activation: RAT, LIVER, S-9, AROCLOR 1254 (10 OR 30%), Method: PREINCUBATION): inactive; negative
- mutagenic call (Test System: AMES SALMONELLA TYPHIMURIUM, Strain/Indicator: TA100, Metabolic Activation: RAT, LIVER, S-9, AROCLOR 1254, Method: STANDARD PLATE): inactive; negative
- mutagenic call [4]: inactive; negative
- mutagenic call (Test System: AMES SALMONELLA TYPHIMURIUM, Strain/Indicator: TA102, Metabolic Activation: RAT, LIVER, S-9, AROCLOR 1254, Method: STANDARD PLATE): inactive; negative
- mutagenic call (Test System: AMES SALMONELLA TYPHIMURIUM, Strain/Indicator: TA1535, Metabolic Activation: HAMSTER, LIVER, S-9, AROCLOR 1254 (10 OR 30%), Method: PREINCUBATION): inactive; negative
- mutagenic call [5]: inactive; negative
- mutagenic call (Test System: AMES SALMONELLA TYPHIMURIUM, Strain/Indicator: TA1535, Metabolic Activation: RAT, LIVER, S-9, AROCLOR 1254 (10 OR 30%), Method: PREINCUBATION): inactive; negative
- mutagenic call (Test System: AMES SALMONELLA TYPHIMURIUM, Strain/Indicator: TA1537, Metabolic Activation: HAMSTER, LIVER, S-9, AROCLOR 1254 (30%), Method: PREINCUBATION): inactive; negative
- mutagenic call [6]: inactive; negative
- mutagenic call (Test System: AMES SALMONELLA TYPHIMURIUM, Strain/Indicator: TA1537, Metabolic Activation: RAT, LIVER, S-9, AROCLOR 1254 (30%), Method: PREINCUBATION): inactive; negative
